Here are results for 20 compounds from PubChem BioAssay (NCI).

Some test systems named below: SNB-75 CNS; OVCAR-3 ovarian; SR leukemia; NCI-H226 lung; SK-MEL-2 melanoma; SF-295 CNS; A549 NSCLC; M14 melanoma; CCRF-CEM leukemia; HL-60(TB) leukemia.
What all share (experiment): NCI-60 cell line screen, 48 h

Values joined by “and” are separate entries in the source; they are usually repeats but may differ in a detail not shown here. Identical values can stand only once.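 These data come from cells grown in 96-well plates and exposed to compound for 48 hours at five concentrations. GI50 = concentration required for 50% inhibition of growth. TGI marks complete inhibition of growth.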

Turning to `CCOC(=O)[C@@H]1ON2OC(OC3CCCC3(c3ccccc3)c3ccccc3)C(OC(C)=O)[C@H]3OC(=O)[C@@H]1C32` (stereo not given in full), the TGI in the assay on SNB-75 CNS, in the assay on OVCAR-3 ovarian, with SR leukemia, in the assay on NCI-H226 lung, in the assay with SK-MEL-2 melanoma and with SF-295 CNS was > 100 µM in each case. In addition, the TGI in the assay with A549 NSCLC, in the assay on M14 melanoma, with CCRF-CEM leukemia and in the assay with HL-60(TB) leukemia was > 100 µM throughout.

For `O=C1C(=Cc2ccc(Cl)c(Cl)c2)C([O-])=C([P+](c2ccccc2)(c2ccccc2)c2ccccc2)C([O-])=C1[P+](c1ccccc1)(c1ccccc1)c1ccccc1`, the TGI in the assay with SNB-75 CNS was determined as 15.9 µM; with OVCAR-3 ovarian it was 3.74 µM; in the assay on SR leukemia, 11.6 µM; in the assay on NCI-H226 lung, 7.14 µM; with SK-MEL-2 melanoma, 6.91 µM; in the assay on SF-295 CNS, 6.74 µM. The TGI with A549 NSCLC worked out at 10.4 µM; in the assay with M14 melanoma, 6.66 µM; in the assay with CCRF-CEM leukemia it was 5.6 µM; in the assay on HL-60(TB) leukemia it was 3.18 µM.

For `CCOC(=O)c1c(-c2cccc3ccccc23)c(C#N)c(=S)n(C2OC(COC(C)=O)C(OC(C)=O)C(OC(C)=O)C2OC(C)=O)c1C` (stereo not given), the TGI was 87.9 µM in the assay with SNB-75 CNS; > 100 µM in the assay with OVCAR-3 ovarian; > 100 µM in the assay on SR leukemia; > 100 µM with NCI-H226 lung; > 100 µM with SK-MEL-2 melanoma; > 100 µM in the assay on SF-295 CNS. Further, the TGI in the assay on A549 NSCLC, in the assay on M14 melanoma, in the assay on CCRF-CEM leukemia and with HL-60(TB) leukemia was > 100 µM each time.

With `O=[N+]([O-])c1cccc2nccc(NCCCO)c12`, the TGI turned out to be 62.6 µM with SNB-75 CNS; 35.3 µM with OVCAR-3 ovarian; 44.2 µM with SR leukemia; 50.6 µM with NCI-H226 lung; 20.9 µM with SK-MEL-2 melanoma; 32 µM in the assay with SF-295 CNS. Besides, the TGI with A549 NSCLC was found to be 49 µM; in the assay with M14 melanoma it was 25.6 µM; in the assay with CCRF-CEM leukemia, 57.5 µM; with HL-60(TB) leukemia it was 36.8 µM.

For the compound `CN(C)CCCNCc1cccc2ccccc12`, the TGI in the assay on SNB-75 CNS is > 100 µM; in the assay on OVCAR-3 ovarian it was > 100 µM; in the assay on SR leukemia, 68.5 µM; in the assay with NCI-H226 lung it was > 100 µM; in the assay on SK-MEL-2 melanoma it was > 100 µM; with SF-295 CNS it was > 100 µM. Moreover, the TGI in the assay with A549 NSCLC, in the assay on M14 melanoma, in the assay on CCRF-CEM leukemia and in the assay with HL-60(TB) leukemia was > 100 µM in each case.

Turning to `S=c1[nH]c2ccc(I)cc2c(=S)n1Cc1ccccc1`, the TGI in the assay on SNB-75 CNS was 13.7 µM; in the assay on OVCAR-3 ovarian it was 8.07 µM; in the assay with SR leukemia, 14.9 µM; with NCI-H226 lung, > 100 µM; with SK-MEL-2 melanoma it was 18 µM; in the assay on SF-295 CNS, 11.5 µM. Moreover, the TGI was > 100 µM in the assay with A549 NSCLC, 31.6 µM in the assay with M14 melanoma, 6.06 µM with CCRF-CEM leukemia and 5.96 µM with HL-60(TB) leukemia.

For `O=C(O)Cn1cc([N+](=O)[O-])c(=O)c2ccccc21`, the TGI with SNB-75 CNS, in the assay with OVCAR-3 ovarian, in the assay with SR leukemia, in the assay with NCI-H226 lung, with SK-MEL-2 melanoma and with SF-295 CNS was > 100 µM throughout. Moreover, the TGI with A549 NSCLC, in the assay with M14 melanoma, in the assay on CCRF-CEM leukemia and in the assay with HL-60(TB) leukemia was > 100 µM each time.

For the compound `CC(=O)OC1COC(Nc2nc(N)n(C)c(=O)c2N=O)C(OC(C)=O)C1OC(C)=O` (stereo not given), the TGI in the assay on SNB-75 CNS, in the assay on OVCAR-3 ovarian, in the assay with SR leukemia, with NCI-H226 lung, in the assay with SK-MEL-2 melanoma and with SF-295 CNS was > 10 µM each time. Besides, the TGI in the assay on A549 NSCLC, in the assay with M14 melanoma, in the assay with CCRF-CEM leukemia and in the assay on HL-60(TB) leukemia was > 10 µM in each case.

Turning to `C/C=N\N1C(=O)c2ccccc2C1=O`, the TGI in the assay with SNB-75 CNS, with OVCAR-3 ovarian, in the assay on SR leukemia, in the assay on NCI-H226 lung, with SK-MEL-2 melanoma and with SF-295 CNS was > 100 µM throughout. Also, the TGI with A549 NSCLC, in the assay with M14 melanoma, with CCRF-CEM leukemia and in the assay with HL-60(TB) leukemia was > 100 µM throughout.

As to `O=C1CC2CCC(C1)S2=O` (stereo not given), the TGI in the assay on SNB-75 CNS, in the assay with OVCAR-3 ovarian, with SR leukemia, in the assay on NCI-H226 lung, with SK-MEL-2 melanoma and in the assay with SF-295 CNS was > 100 µM each time. Besides, the TGI with A549 NSCLC, in the assay on M14 melanoma, with CCRF-CEM leukemia and in the assay with HL-60(TB) leukemia was > 100 µM each time.

Regarding `O=c1oc2ccccc2c(O)c1C(C/C(CCN1CCCC1)=N\Nc1ccccc1)c1ccccc1` (stereo not given), the TGI in the assay on SNB-75 CNS is > 100 µM; in the assay with OVCAR-3 ovarian, > 100 µM; in the assay on SR leukemia it was 75.1 µM; with NCI-H226 lung, > 100 µM; with SK-MEL-2 melanoma, > 100 µM; in the assay with SF-295 CNS, > 100 µM. Besides, the TGI with A549 NSCLC was > 100 µM; in the assay with M14 melanoma it was > 100 µM; in the assay on CCRF-CEM leukemia, 69.5 µM; in the assay on HL-60(TB) leukemia it was 60 µM.

Turning to `[N-]=[N+]=Nc1c([N+](=O)[O-])c(=O)n2c3c(cccc13)CCC2`, the TGI was 38.1 µM in the assay with SNB-75 CNS; 32.5 µM in the assay with OVCAR-3 ovarian; 5.9 µM in the assay with SR leukemia; 51.9 µM in the assay with NCI-H226 lung; 31.2 µM in the assay with SK-MEL-2 melanoma; > 100 µM in the assay on SF-295 CNS. For the same compound, the TGI with A549 NSCLC was > 84.5 µM; with M14 melanoma it was 26.2 µM; with CCRF-CEM leukemia, 4.98 µM; in the assay on HL-60(TB) leukemia, 4.56 µM.

`CCC(NC1=NCCO1)c1cccs1` (stereo not given): the TGI in the assay on SNB-75 CNS is 16.9 µM; in the assay on OVCAR-3 ovarian it was 30.6 µM; in the assay on SR leukemia, > 100 µM; with NCI-H226 lung it was 37.1 µM; in the assay on SK-MEL-2 melanoma, 29.4 µM; with SF-295 CNS, 28.4 µM. Also, the TGI was 28.1 µM with A549 NSCLC, 33.3 µM in the assay with M14 melanoma, 65.4 µM with CCRF-CEM leukemia and 82.7 µM with HL-60(TB) leukemia.

Regarding `COc1cc(CS(=O)c2ccc(O)cc2)cc(OC)c1OC` (stereo not given), the TGI in the assay on SNB-75 CNS, with OVCAR-3 ovarian, in the assay with SR leukemia, with NCI-H226 lung, in the assay on SK-MEL-2 melanoma and with SF-295 CNS was > 100 µM each time. Moreover, the TGI with A549 NSCLC, in the assay with M14 melanoma, in the assay on CCRF-CEM leukemia and in the assay with HL-60(TB) leukemia was > 100 µM in each case.

`O=C(/C=C\c1cccc2ccccc12)c1cccc2ccccc12`: the TGI is 18.6 µM in the assay on SNB-75 CNS; 25.3 µM with OVCAR-3 ovarian; > 100 µM in the assay with SR leukemia; 25 µM in the assay on NCI-H226 lung; 36.8 µM with SK-MEL-2 melanoma; 30.2 µM in the assay with SF-295 CNS. Also, the TGI is 36.5 µM in the assay on A549 NSCLC; 26 µM in the assay with M14 melanoma; 8.97 µM in the assay on CCRF-CEM leukemia; 9.29 µM and 25.6 µM in the assay on HL-60(TB) leukemia. For the same compound, the GI50 was 12.5 µM with OVCAR-3 ovarian; 3.95 µM in the assay on SR leukemia; 12.2 µM with NCI-H226 lung; 2.28 µM in the assay with CCRF-CEM leukemia; 2.9 µM with HL-60(TB) leukemia.

On to `CC(C)(C)CC(C)(C)c1ccc(O)c(C[N+](C)(C)[O-])c1`, for which the TGI in the assay on SNB-75 CNS, in the assay with OVCAR-3 ovarian, in the assay with SR leukemia, with NCI-H226 lung, with SK-MEL-2 melanoma and in the assay on SF-295 CNS was > 100 µM in each case. The TGI in the assay with A549 NSCLC was > 100 µM; in the assay with M14 melanoma, > 100 µM; in the assay on CCRF-CEM leukemia it was > 100 µM; with HL-60(TB) leukemia, 99.6 µM.

Consider `C=C1CN(C2=NCCO2)C1`, for which the TGI with SNB-75 CNS, with OVCAR-3 ovarian, in the assay on SR leukemia, with NCI-H226 lung, with SK-MEL-2 melanoma and in the assay on SF-295 CNS was > 100 µM throughout. Further, the TGI in the assay with A549 NSCLC, in the assay with M14 melanoma, in the assay with CCRF-CEM leukemia and in the assay on HL-60(TB) leukemia was > 100 µM each time.

As to `O=C1c2ccccc2C(=O)c2[nH]c(Cc3ccc(F)cc3)nc21`, the TGI was 38.3 µM in the assay with SNB-75 CNS; 38.2 µM with OVCAR-3 ovarian; 55.5 µM in the assay on SR leukemia; 45.9 µM in the assay with NCI-H226 lung; 29 µM with SK-MEL-2 melanoma; 31.2 µM in the assay with SF-295 CNS. Further, the TGI in the assay with A549 NSCLC was 38.1 µM; in the assay with M14 melanoma, 30.2 µM; with CCRF-CEM leukemia it was > 100 µM; with HL-60(TB) leukemia, 55.2 µM.

As to `Cc1ccc([N+](=O)[O-])c2c(NCC(O)CO)ccnc12` (stereo not given), the TGI with SNB-75 CNS was > 100 µM; in the assay with OVCAR-3 ovarian, > 100 µM; in the assay with SR leukemia, > 100 µM; with NCI-H226 lung it was > 100 µM; with SK-MEL-2 melanoma, 53.9 µM; in the assay on SF-295 CNS, 73.9 µM. Moreover, the TGI in the assay on A549 NSCLC, in the assay with M14 melanoma, in the assay on CCRF-CEM leukemia and in the assay with HL-60(TB) leukemia was > 100 µM throughout.

Consider `COc1ccc(C(=O)/C=C/c2cc(O)c(O)cc2F)c(OC)c1`, for which the TGI in the assay with SNB-75 CNS amounted to 20.7 µM; in the assay with OVCAR-3 ovarian it was 2.65 µM; in the assay with SR leukemia, 14.1 µM; in the assay on NCI-H226 lung it was 55 µM; in the assay with SK-MEL-2 melanoma, 18.3 µM; in the assay on SF-295 CNS, 23.5 µM. For the same compound, the TGI was > 75.4 µM with A549 NSCLC, 23.9 µM in the assay on M14 melanoma, 15.2 µM with CCRF-CEM leukemia and 5.71 µM with HL-60(TB) leukemia.
